Experimental findings from patent publication EP4603105A1, “PHARMACEUTICAL COMPOSITION CONTAINING CYCLIC COMPOUND HAVING SELECTIVE KRAS INHIBITORY EFFECT AGAINST HRAS AND NRAS” (CHUGAI SEIYAKU KABUSHIKI KAISHA, priority 2022, dated 2024) are described below.

The structures appear in SMILES notation. pIC50, pKd: −log10 of the molar value.

The subject of test [1] is human lung cancer strain NCI-H441. Type of test: cell-based. The method in brief: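 Readout: […] after the ATP-based reagent. Compound: serial dilutions in dimethyl sulfoxide.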
For test [2], the system named is human bladder cancer strain UM-UC-3. Format: cell-based. Here is the method:
A test compound was dispensed into a U-bottom 384-well plate as 40 nL serially diluted dimethyl sulfoxide solutions using a liquid handler Echo (LABCYTE). As for human bladder cancer strain UM-UC-3 (ATCC), a cell suspension was prepared so as to have 250 cells/40 µL in an MEM medium (Nacalai Tesque) supplemented with 10% fetal bovine serum (Sigma), an MEM non-essential amino acids solution (100X), and 1 mmol/L sodium pyruvate. This cell suspension was dispensed in an amount of 40 µL per well into a plate containing the test compound, and cultured at 37°C in a 5% carbon dioxide gas incubator. Seven days later, 20 µL of CellTiter-Glo (registered trademark) (Promega) was added to each well and luminescence was measured. […]

The test system of test [3] is human gastric cancer strain GSU. Type of test: cell-based. How it is done: (§1) A test compound was dispensed into a U-bottom 384-well plate as 40 nL serially diluted dimethyl sulfoxide solutions using a liquid handler Echo (LABCYTE). As for human gastric cancer strain GSU (Institute of Physical and Chemical Research), a cell suspension was prepared so as to have 200 cells/40 µL in an RPMI-1640 medium (Sigma) supplemented with 10% fetal bovine serum (Sigma). This cell suspension was dispensed in an amount of 40 µL per well into a plate containing the test compound, and cultured at 37°C in a 5% carbon dioxide gas incubator. Seven days later, 20 µL of CellTiter-Glo (registered trademark) (Promega) was added to each well and luminescence was measured.

For the next test, the target named is HRAS wild-type protein (Homo sapiens, UniProt P01112). Briefly: Binding to HRAS by surface plasmon resonance (SPR), KD and KD ratio to KRAS. The following applies: ratio of KD for HRAS wild-type protein to KD for KRAS. The procedure, abridged: (§2)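 GDP-loaded biotinylated Avi-tag RAS proteins (E. coli-expressed) captured on a Biotin CAPture chip at ~100–300 RU; single-cycle kinetics at 30°C, 100 µL/min, 75 s injections of rising compound concentrations. HBS pH 7.4 running buffer with 1 mM DTT, 10 mM MgCl2, 10 µM GDP, 4% DMSO. KD from 1:1 binding fit.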
HRAS wild-type protein, sequence (P01112 whole entry): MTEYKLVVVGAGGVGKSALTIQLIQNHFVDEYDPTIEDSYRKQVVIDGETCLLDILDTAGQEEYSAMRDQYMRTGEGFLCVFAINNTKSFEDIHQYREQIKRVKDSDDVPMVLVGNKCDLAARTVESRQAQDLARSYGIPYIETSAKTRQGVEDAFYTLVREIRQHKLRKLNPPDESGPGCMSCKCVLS
Background: Surface plasmon resonance follows binding to a sensor surface in real time, without labels.

For test [4], the system named is human ovarian cancer strain OV7. Type of test: cell-based. How it is done:
A test compound was dispensed into a U-bottom 384-well plate as 40 nL serially diluted dimethyl sulfoxide solutions using a liquid handler Echo (LABCYTE). As for human ovarian cancer strain OV7 (ECACC), a cell suspension was prepared so as to have 250 cells/40 µL in a DMEM/Ham's F-12 medium (Nacalai Tesque) supplemented with 5% fetal bovine serum (Sigma), 0.5 µg/mL hydrocortisone, and 10 µg/mL insulin. This cell suspension was dispensed in an amount of 40 µL per well into a plate containing the test compound, and cultured at 37°C in a 5% carbon dioxide gas incubator. Seven days later, 20 µL of CellTiter-Glo (registered trademark) (Promega) was added to each well and luminescence was measured.

Test [5] addresses GDP-bound NRAS wild-type protein (Homo sapiens, UniProt P01111). As to the kind of experiment: Binding to NRAS by surface plasmon resonance (SPR), KD and KD ratio to KRAS. The following applies: ratio of KD for GDP-bound NRAS wild-type protein to KD for KRAS. The method in brief:
as §2

The test system of test [6] is human colorectal cancer strain GP2d. Format: cell-based. How it is done: as §1, with “colorectal” for “gastric”, “GP2d (ECACC),” for “GSU (Institute of Physical and Chemical Research),”, “500” for “200”, “a Dulbecco's modified Eagle” for “an RPMI-1640”, “medium” for “medium (Sigma)”
The subject of test [7] is human gastric cancer strain SNU-1. Type of test: cell-based. How it is done:
A test compound was dispensed into a U-bottom 384-well plate as 40 nL serially diluted dimethyl sulfoxide solutions using a liquid handler Echo (LABCYTE). As for human gastric cancer strain SNU-1 (ATCC), a cell suspension was prepared so as to have 250 cells/40 µL in an RPMI-1640 medium (Sigma) supplemented with 10% fetal bovine serum (Sigma), a 2.5 g/L D-(+)-glucose solution, 10 mmol/L HEPES, and 1 mmol/L sodium pyruvate. This cell suspension was dispensed in an amount of 40 µL per well into a plate containing the test compound, and cultured at 37°C in a 5% carbon dioxide gas incubator. Seven days later, 20 µL of CellTiter-Glo (registered trademark) (Promega) was added to each well and luminescence was measured.

Test [8] deals with GDP-bound KRAS wild-type protein (Homo sapiens, UniProt P01116). Briefly: Binding to KRAS by surface plasmon resonance (SPR), dissociation constant KD. Particulars: 1:1 binding model. The procedure, abridged:
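Each cycle, GDP-bound biotin-Avi RAS was captured (~100–300 RU), compound concentrations were injected low to high for 75 s each at 100 µL/min, then the chip was regenerated. Buffer: HBS pH 7.4, 10 mM MgCl2, 10 µM GDP, 1 mM DTT, 4% DMSO; 30°C. KD from a 1:1 binding model.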

The test system of test [9] is human pancreatic cancer strain KP4. Type of test: cell-based. How it is done:
as §1, with “human pancreatic” for “human gastric”, “strain KP4” for “strain GSU”, “have 500” for “have 200”, “in a DMEM/Ham's F-12” for “in an RPMI-1640”, “medium (Nacalai Tesque)” for “medium (Sigma)”

Usually pIC50 stands for the negative decadic logarithm of the IC50, by convention in mol/L. The low end stands for a large IC50, the high end for a small IC50. Usually pKd stands for the Kd on a negative log10 scale, so that one unit is a factor of ten. Low values mean a high Kd, high ones a low Kd.

GDP-bound NRAS wild-type protein, sequence (P01111 whole entry): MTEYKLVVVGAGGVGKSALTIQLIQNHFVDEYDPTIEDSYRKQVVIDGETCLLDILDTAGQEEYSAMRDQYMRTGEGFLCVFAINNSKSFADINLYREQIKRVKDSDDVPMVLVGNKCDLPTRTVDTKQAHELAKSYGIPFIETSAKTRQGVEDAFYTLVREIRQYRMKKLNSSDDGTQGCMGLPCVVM
GDP-bound KRAS wild-type protein, sequence (P01116 1-188 isoform P01116-2): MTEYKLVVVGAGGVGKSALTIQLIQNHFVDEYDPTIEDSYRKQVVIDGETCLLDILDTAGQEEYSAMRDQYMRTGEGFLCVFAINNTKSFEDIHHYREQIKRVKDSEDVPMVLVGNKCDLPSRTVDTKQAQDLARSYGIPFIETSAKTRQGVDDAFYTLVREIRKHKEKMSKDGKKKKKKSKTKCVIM

As for `CCO[C@@H]1C[C@H]2C(=O)NC3(CC(C)(C)C3)C(=O)N(C)[C@@H](CC(C)(C)C)C(=O)N(C)[C@H](C(=O)N(C)C)CC(=O)N(C)[C@@H](COC)C(=O)N[C@@H]([C@@H](C)CC)C(=O)N(C3CC3)CC(=O)N(C)[C@H]3C/C=C\CCN(C3=O)[C@@H](Cc3ccc(C(F)(F)F)cc3)C(=O)N(C)CC(=O)N[C@@H](CCc3ccc(Cl)c(Cl)c3)C(=O)N2C1` [PP2750, (2S,8S,12R,14S,20S,23S,27S,30S,36S,38Z)-32-cyclopropyl-8-[2-(3,4-dichlorophenyl)ethyl]-20-(2,2-dimethylpropyl)-12-ethoxy-27-(methoxymethyl)-N,N,3',3',4,19,22,26,35-nonamethyl-30-[(1S)-1-methylpropyl]-3,6,9,15,18,21,25,28,31,34,42-undecaoxo-2-[[4-(trifluoromethyl)phenyl]methyl]spiro[1,4,7,10,16,19,22,26,29,32,35-undecazatricyclo[34.5.1.0^10,14]dotetracont-38-ene-17,1'-cyclobutane]-23-carboxamide], the pIC50 in test [1] is 7.72; in test [2], 7.69; in test [3] it was 8.72; in test [4], 7.50; in [6] it was 7.63; in [7], 7.62. The negative logarithm of the IC50 (pIC50) in [9] is 7.25. Moreover, on HRAS wild-type protein, the “HRAS /KRAS” value is “A (a compound having 10 or more and less than 20 is denoted as A)”. For the same compound, the “NRAS /KRAS” value in [5] is recorded as “AA (a compound having 20 or more is denoted as AA)”. Further, in test [8], the pKd is 9.27.

In the case of `CCC(CC)[C@H]1C(=O)N(C)[C@H](C(=O)N(C)C)CC(=O)N(C)[C@@H](COC)C(=O)N[C@@H]([C@@H](C)CC)C(=O)N(C)CC(=O)N(C)[C@H]2C/C=C\CCN(C2=O)[C@@H](Cc2ccc(C)cc2)C(=O)N(C)CC(=O)N[C@@H](CCc2ccc(C(F)(F)F)c(Cl)c2)C(=O)N2CC3(CC3)C[C@H]2C(=O)NC2(CC(C)(C)C2)C(=O)N1C` [PP2967], the pIC50 in [1] was 7.77; in test [2] it was 7.67; in test [3], 8.28; in [4] it was 7.24; in test [6], 7.57; in test [7], 7.45. In [9], the pIC50 is 7.21. Besides, on HRAS wild-type protein, the “HRAS /KRAS” value was “A (a compound having 10 or more and less than 20 is denoted as A)”. Also, in test [5], the “NRAS /KRAS” value was “AA (a compound having 20 or more is denoted as AA)”. Moreover, the pKd in test [8] was 9.39.

As for `CCO[C@@H]1C[C@H]2C(=O)NC3(CC(C)(C)C3)C(=O)N(C)[C@@H](C3CCCC3)C(=O)N(C)[C@H](C(=O)N(C)C)CC(=O)N(C)[C@@H]([C@@H](C)OC)C(=O)N[C@@H]([C@@H](C)CC)C(=O)N(C)CC(=O)N(C)[C@H]3C/C=C\CCN(C3=O)[C@@H](Cc3ccc(C(F)(F)F)cc3)C(=O)N(C)CC(=O)N[C@@H](CCc3ccc(C(F)(F)F)c(OC)c3)C(=O)N2C1` [PP3194, (2S,8S,12R,14S,20S,23S,27S,30S,36S,38Z)-20-cyclopentyl-12-ethoxy-27-[(1R)-1-methoxyethyl]-8-[2-[3-methoxy-4-(trifluoromethyl)phenyl]ethyl]-N,N,3',3',4,19,22,26,32,35-decamethyl-30-[(1S)-1-methylpropyl]-3,6,9,15,18,21,25,28,31,34,42-undecaoxo-2-[[4-(trifluoromethyl)phenyl]methyl]spiro[1,4,7,10,16,19,22,26,29,32,35-undecazatricyclo[34.5.1.0^10,14]dotetracont-38-ene-17,1'-cyclobutane]-23-carboxamide], the pIC50 in [1] was 8.54; in test [2], 8.57; in test [3] it was 9.22; in test [4], 8.11; in test [6], 8.55; in [7] it was 8.60. Besides, in [9], the pIC50 is 8.17. Besides, the “HRAS /KRAS” value on HRAS wild-type protein is “A (a compound having 10 or more and less than 20 is denoted as A)”. In [5], the “NRAS /KRAS” value is “A (a compound having 10 or more and less than 20 is denoted as A)”. The pKd in test [8] was 10.39.
